Reference: US6528494B2 (priority 1996, dated 2003)
Counter-ions that a name gives are not always drawn.

Tests used:
Format in all cases: cell-based
adenosine 3 receptor = molecular target: T1, adenosine 3 receptor (Homo sapiens, UniProt P0DMS8); assay: Agonist activity against adenosine 3 receptor (CHO cells, forskolin-enhanced cAMP/SPAP reporter); conditions: CHO cells transfected with human receptor; forskolin-enhanced cAMP via SPAP; mean of all the versions tested
T1 sequence (P0DMS8 1-318): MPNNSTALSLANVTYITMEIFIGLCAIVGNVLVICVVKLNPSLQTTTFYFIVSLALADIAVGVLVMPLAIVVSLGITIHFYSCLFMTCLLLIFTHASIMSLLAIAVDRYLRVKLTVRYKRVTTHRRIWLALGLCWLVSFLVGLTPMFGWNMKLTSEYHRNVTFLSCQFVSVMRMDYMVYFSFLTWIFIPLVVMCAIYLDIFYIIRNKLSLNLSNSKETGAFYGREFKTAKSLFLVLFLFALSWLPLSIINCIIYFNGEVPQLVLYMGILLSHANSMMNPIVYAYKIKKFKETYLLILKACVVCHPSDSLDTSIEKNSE
Description: (§1) (1) Agonist activity against adenosine 2a, adenosine 1 and adenosine 3 receptor subtypes.
(§2) The effect of test compounds was determined by their effects on basal levels of cAMP (A2a) or on forskolin-enhanced cAMP (A1 and A3) as reflected by changes in levels of SPAP.

adenosine 1 receptor = molecular target: T2, adenosine 1 receptor (Homo sapiens, UniProt P30542); assay: Agonist activity against adenosine 1 receptor (CHO cells, forskolin-enhanced cAMP/SPAP reporter); conditions: CHO cells transfected with human receptor; forskolin-enhanced cAMP via SPAP; mean of all the versions tested
T2 sequence (P30542 1-326): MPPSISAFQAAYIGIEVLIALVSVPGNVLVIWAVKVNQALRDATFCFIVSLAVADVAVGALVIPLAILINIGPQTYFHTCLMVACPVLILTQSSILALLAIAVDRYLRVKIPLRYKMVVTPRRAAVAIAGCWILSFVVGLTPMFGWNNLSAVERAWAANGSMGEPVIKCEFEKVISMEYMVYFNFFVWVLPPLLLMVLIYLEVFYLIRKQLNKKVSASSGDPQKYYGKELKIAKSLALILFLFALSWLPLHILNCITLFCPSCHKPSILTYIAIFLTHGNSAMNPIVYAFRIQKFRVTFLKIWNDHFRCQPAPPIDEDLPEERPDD
Description: as §1, §2

adenosine 2a receptor = adenosine 2a receptor (Homo sapiens, UniProt P29274); assay: Agonist activity against adenosine 2a receptor (CHO cells, cAMP/SPAP reporter); conditions: CHO cells transfected with human receptor; basal cAMP via SPAP; mean of all the versions tested
Chain of adenosine 2a receptor (P29274 whole entry): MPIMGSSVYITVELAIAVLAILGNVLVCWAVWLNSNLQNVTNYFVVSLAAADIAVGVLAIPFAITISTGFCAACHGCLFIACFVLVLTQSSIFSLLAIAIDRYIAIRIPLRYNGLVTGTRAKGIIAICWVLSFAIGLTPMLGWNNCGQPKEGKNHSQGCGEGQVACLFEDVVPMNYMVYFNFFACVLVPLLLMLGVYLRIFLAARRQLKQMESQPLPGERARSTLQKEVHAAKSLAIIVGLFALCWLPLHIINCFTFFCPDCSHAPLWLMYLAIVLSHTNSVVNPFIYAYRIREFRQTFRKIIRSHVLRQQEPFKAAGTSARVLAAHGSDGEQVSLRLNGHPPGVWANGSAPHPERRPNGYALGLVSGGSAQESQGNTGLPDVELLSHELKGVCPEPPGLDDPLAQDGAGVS
Description: as §1, §2

Row | Compound | A3 EC50 as a ratio of that of NECA (adenosine 3 receptor) | A1 EC50 as a ratio of that of NECA (adenosine 1 receptor) | A2a EC50 as a ratio of that of NECA (adenosine 2a receptor)
1 | CCn1nnc([C@H]2O[C@@H](n3cnc4c(N)nc(NCc5ccccc5CO)nc43)[C@H](O)[C@@H]2O)n1.O=C(O)C(F)(F)F [Example 86, (2R,3R,4S,5R)-2-[6-Amino-2-(2-hydroxymethyl-benzylamino)-purin-9-yl]-5-(2-ethyl-2H-tetrazol-5-yl)-tetrahydro-furan-3,4-diol Trifluoroacetate] | >179 | 16.90 | 2.16
2 | Cn1nnc([C@H]2O[C@@H](n3cnc4c(NCC(c5ccccc5)c5ccccc5)nc(N[C@@H]5CCC[C@H]5O)nc43)[C@H](O)[C@@H]2O)n1.O=CO [Example 96, (2R,3R,4S,5R)-2-[6-(2,2-Diphenyl-ethylamino)-2-(2R-hydroxy-(R)-cyclopentylamino)-purin-9-yl]-5-(2-methyl-2H-tetrazol-5-yl)-tetrahydro-furan-3,4-diol Formate] | >153 | 5177.00 | 2.14
3 | (2R,3R,4S,5R)-2-[6-(1-Ethyl-propylamino)-2-(2-piperidin-1-yl-ethylamino)-purin-9-yl]-5-(2-methyl-2H-tetrazol-5-yl)-tetrahydro-furan-3,4-diol Diformate [Example 24] | >157 | >4798 | 0.36
4 | CC(=O)O.CCC(CC)Nc1nc(NCCc2cn(C)cn2)nc2c1ncn2[C@@H]1O[C@H](c2nnn(CC)n2)[C@@H](O)[C@H]1O [Example 6, (2R,3R,4S,5R)-2-{6-(1-Ethyl-propylamino)-2-[2-(1-methyl-1H-imidazol-4-yl)-ethylamino]-purin-9-yl}-5-(2-ethyl-2H-tetrazol-5-yl)-tetrahydro-furan-3,4-diol Acetate] | >256 | 34.4 | 0.14

Second part, the compound after the results:

Row | A3 EC50 as a ratio of that of NECA (adenosine 3 receptor) | A1 EC50 as a ratio of that of NECA (adenosine 1 receptor) | A2a EC50 as a ratio of that of NECA (adenosine 2a receptor) | Compound
5 | >181 | 102.00 | 4.12 | CCn1nnc([C@H]2O[C@@H](n3cnc4c(NCc5cccc(I)c5)nc(NCCN5CCOCC5)nc43)[C@H](O)[C@@H]2O)n1 [Example 48, (2R,3S,4R,5R)-2-(2-Ethyl-2H-tetrazol-5-yl)-5-[6-(3-iodo-benzylamino)-2-(2-morpholin-4-yl-ethylamino)-purin-9-yl]-tetrahydro-furan-3,4-diol]
6 | >155 | 215.30 | 2.93 | CCn1nnc(C2OC(n3cnc4c(NCc5cccc(I)c5)nc(NC5CCNC5)nc43)C(O)C2O)n1 [Example 76, (2R,3S,4R,5R)-2-(2-Ethyl-2H-tetrazol-5-yl)-5-[6-(3-iodo-benzylamino)-2-(pyrrolidin-3S-ylamino)-purin-9-yl]-tetrahydro-furan-3,4-diol bis(Formate)]
7 | >153 | 922.00 | 5.07 | Cn1nnc(C2OC(n3cnc4c(NCC(c5ccccc5)c5ccccc5)nc(NC5CCC(N)CC5)nc43)C(O)C2O)n1.O=CO.O=CO [Example 93, (2R,3R,4S,5R)-2-[2-(trans-4-Amino-cyclohexylamino)-6-(2,2-diphenyl-ethylamino)-purin-9-yl]-5-(2-methyl-2H-tetrazol-5-yl)-tetrahydro-furan-3,4-diol Diformate]
8 | >150 | 323.00 | 9.20 | CCn1nnc(C2OC(n3cnc4c(NCc5ccccc5)nc(NC(CO)Cc5ccccc5)nc43)C(O)C2O)n1 [Example 61, (2R,3R,4S,5R)-2-[6-Benzylamino-2-(1S-hydroxymethyl-2-phenyl-ethylamino)-purin-9-yl]-5-(2-ethyl-2H-tetrazol-5-yl)-tetrahydro-furan-3,4-diol Formate]
